# Measurements from patent US4094908A, “Alpha-substituted benzhydrol derivatives” (Richter Gedeon Vegyeszeti Gyar Rt., priority 1973, dated 1978).
# Tests used:
# [1] = system: hexobarbital oxidase; assay: Enzyme-inducing potency: in vivo hexobarbital oxidase activity (duration of hexobarbital narcosis); set-up: species or system Female Wistar rats; settings: 24 hours before hexobarbital
# Experimental: […] 24 and 48 hours after the administration of the active agent, respectively, the animals were narcotized with 40 mg./kg. i.v. dosage of hexobarbital sodium, and the time elapsed until complete wakening was measured (Noordhock, J.: Eur. J. Pharmacol. 3, 242, 1968). The data were recorded, and the mean values, the standard errors, as well as the percentage increase with respect to the controls were calculated for each group. […] The hexobarbital concentration of the plasma, measured on the instant of wakening, was the same for both the treated and the control animals, thus the increase of narcosis period was not due to a certain central nervous interaction (Jori, A., Bianchatti, A., Presentini, P. E.: Biochem. Pharmacol. 19, 2687, 1970).
# The enzyme-inducing potency of the new compounds was determined by several methods. One of these methods was the in vivo measurement of hexobarbital oxidase activity.
# The decrease of narcosis period is due to the fact that the new compounds according to the invention accelerate the elimination of hexobarbital, a foreign substance, from the body. When administering the compound to be tested in a single dosage and measuring the duration of hexobarbital narcosis 24 hours after the administration, the following results are obtained: […]
# [2] = system: bilirubin elimination; assay: Bilirubin elimination under in vivo conditions; set-up: species or system rats; settings: pre-treated rats; 30 mg./kg. free bilirubin i.v.
# Experimental: When examining the bilirubin elimination under in vivo conditions on rats pre-treated with E 15 or phenobarbital, respectively, and challenged intravenously with a dosage of 30 mg./kg. of free bilirubin, the following biological halving periods were determined (Krueger, H., Higginson, J.: Proc. Soc. Exp. Biol. Med. 107, 43, 1961): […]
# [3] = Toxicity: perished animals/tested animals; assay type: in vivo
# Text: Despite its disadvantageous properties, phenobarbital is widely used in the treatment of neonatal jaundice. In order to enable a better comparison, Table 8 indicates the respective dosages in which phenobarbital causes lethal respiration paralysis, while the compounds according to the invention are completely innocuous.
# [4] = system: central nervous system; assay type: in vivo, mice and rats
# Text: The central nervous activities of the compounds according to the invention were examined on mice and rats with the following methods: electroshock (Swinyard, E. A., Brown, W. C., Goodman, L. S.: J. Pharmacol. Exp. Ther. 106, 319, 1952), metrazol spasm (Everett, G. M., Richards, R. K.: J. Pharmacol. Exp. Ther. 81, 402: 1944), thiosemicarbezide spasm (Da Venzo, J. P. Greig, M. E., Cormin, M. A.: Amer. J. Physiol. 201, 833: 1961), strychnine spasm (Kerley, T. L., Richards, A. G., Begley, R. W., Abreu, B. B. Wesver, L. C.: J. Pharmacol. Exp. Ther. 132, 360: 1961), nicotine spasm (Stone, C. A., Mecklenburg, K. L., Torhans, M. L.: Arch. Int. Pharmacodyn. 117, 419: 1958), rotarod test (Kinnard, W. C., Carr, C. J.: J. Pharmacol. Expt. Ther. 121, 3, 54: 1957), physistigmine lethality preventing effect (Nose, T., Kojima, M.: Europ. J. Pharmacol. 10, 83: 1970), yohimbine potentiation effect (Quinton, R. M.: Brit. J. Pharmacol. 21, 51: 1963), and analgesic activity (Bianchi, G., Franceschini, J.: Brit. J. Pharm. Chemother. 9, 280: 1954). As reference substance, phenobarbital was used. […]
# [5] = neonatal jaundice; in words; cited from earlier work
smiles,measurement,setting,value
"CCC1(c2ccccc2)C(=O)NC(=O)NC1=O [Phenobarbital, reference compound]",Sleeping period ± standard error,[1]; 5 mg./kg. single dosage,20.1 ± 2.0
same,Sleeping period ± standard error,[1]; 10 mg./kg. single dosage,14.3 ± 1.4
same,Sleeping period ± standard error,[1]; 20 mg./kg. single dosage,14.0 ± 1.3
same,Sleeping period ± standard error,[1]; 40 mg./kg. single dosage,12.5 ± 1.2
same,t1/2 (biological halving period of bilirubin),[2],13 min
same,Perished animals/tested animals,[3]; 40 mg./kg,0/10
same,Perished animals/tested animals,[3]; 80 mg./kg,0/10
same,Perished animals/tested animals,[3]; 160 mg./kg,4/10
same,Perished animals/tested animals,[3]; 320 mg./kg,9/10
same,Perished animals/tested animals,[3]; 640 mg./kg,10/10
same,Central nervous effects,"[4]; in words, in contrast with phenobarbital",hypnotic and respiration paralyzing effects
same,Central nervous activity,"[4]; oral 40, 120 and 150 mg./kg., phenobarbital effect even at 40 mg./kg.",strong anticonvulsive muscle-incoordinating and sedative effects
same,Side effects,[5],toxic (sedative and respiration-paralyzing) side effects
